Columns and labels:
in vitro [1] = conditions: rat
in vitro [2] = conditions: human
[3] = Solubility of the compound in water; format: physicochemical
[4] = Solubility of the compound in buffer at pH 2 to 7 at 37 degC; format: physicochemical
[5] = Apparent permeability of the compound in human Caco-2 cells at 10 uM; format: ADME, cell-based
[6] = Tmax in Beagle dog at 1 mg/kg, po; format: ADME, organism-based, Canis lupus familiaris; conditions: in vivo
[7] = AUC (0 to 24 hrs) in Beagle dog at 1 mg/kg, po; format: ADME, organism-based, Canis lupus familiaris; parameters: dose 1 mg/kg, route po; conditions: in vivo
[8] = Terminal half life in Beagle dog at 1 mg/kg, iv; format: ADME, organism-based, Canis lupus familiaris; conditions: in vivo, read-out: beta t1/2 (converted)
[9] = Clearance in Beagle dog at 1 mg/kg, iv; format: ADME, organism-based, Canis lupus familiaris; conditions: in vivo
[10] = Volume of distribution in Beagle dog at 1 mg/kg, iv; format: ADME, organism-based, Canis lupus familiaris; conditions: in vivo
[11] = Oral bioavailability in Beagle dog at 1 mg/kg; format: ADME, organism-based, Canis lupus familiaris; conditions: in vivo
[12] = Acid dissociation constant, pKa of the compound; format: physicochemical
[13] = rat, in vivo, po, 3 mg/kg, 24 h
[14] = rat, in vivo, po, 3 mg/kg, 24 h; remark: listed apart in the source
in vivo [15] = conditions: Wistar, rat, po, 3 mg/kg
in vivo [16] = conditions: Wistar, rat, po, 3 mg/kg; remark: listed apart in the source
in vivo [17] = conditions: Wistar, rat, po, 3 mg/kg; remark: listed apart in the source
in vivo [18] = conditions: Wistar, rat, po, 3 mg/kg; remark: listed apart in the source
in vivo [19] = conditions: Wistar, rat, iv, 1 mg/kg
[20] = rat, in vivo, po, 3 mg/kg, 24 h; remark: listed apart in the source
in vivo [21] = conditions: Wistar, rat, brain and plasma, po, 10 mg/kg

## CC(C)n1nc(-c2noc(C3CCN(CC4CCOCC4)CC3)n2)c2ccccc21
In vitro [1]; microsomes
  metabolised at 0.5 h: 64.1%
In vitro [2]; microsomes
  metabolised at 0.5 h: 40.4%

## COCCCN1CCC(c2nnc(-c3nn(C(C)C)c4ccccc34)o2)CC1.O=C(O)C(=O)O
[3]
  solubility: 17.1 mg/mL
[4]
  solubility: 20 mg/mL
[5]
  Papp at 10 µM: 38 ×10⁻⁶ cm/s
[6]
  Tmax: 30 min
[7]
  AUC(0-t): 711 ng·h/mL
[8]
  half-life: 360 min
[9]
  clearance: 18 mL/min/kg
[10]
  Vd: 5.1 L/kg
[11]
  bioavailability: 72%
[12]
  pKa: 8.4
[13]
  Vdss: 8 L/kg
In vitro [1]; liver microsomes
  metabolised at 0.5 h: 25.1%
In vitro [2]; liver microsomes
  metabolised at 0.5 h: 26.2%

## CC(C)n1nc(-c2nnc(C3CCN(CC4CC4)CC3)o2)c2ccccc21
[14]
  AUC: 394 ng·h/mL
[13]
  Vdss: 8 L/kg
In vivo [15]
  half-life at 24 h: 102 min
In vitro [1]; liver microsomes
  metabolised at 0.5 h: 83.8%
In vitro [2]; liver microsomes
  metabolised at 0.5 h: 43.6%

## CC(C)n1nc(-c2nnc(C3CCN(CC4CCC4)CC3)o2)c2ccccc21
[13]
  Vdss: 4.9 L/kg
In vivo [16]
  bioavailability at 24 h: 2.6%
In vivo [17]
  Cmax at 24 h: 14 ng/mL
In vivo [18]
  AUC at 24 h: 16 ng·h/mL
In vivo [15]
  half-life at 24 h: 138 min
In vivo [19]
  clearance at 24 h: 81 mL/min/kg
In vitro [1]; liver microsomes
  metabolised at 0.5 h: 55.1%
In vitro [2]; liver microsomes
  metabolised at 0.5 h: 62.5%

## CC(C)N1CCC(c2nnc(-c3nn(C(C)C)c4ccccc34)o2)CC1
[20]
  F: 9%
[14]
  AUC: 133 ng·h/mL
[13]
  Vdss: 10 L/kg
In vivo [17]
  Cmax at 24 h: 91 ng/mL
In vivo [15]
  half-life at 24 h: 114 min
In vivo [21]
  Kp at 1 h: 3.6
In vitro [1]; liver microsomes
  metabolised at 0.5 h: 35.7%
In vitro [2]; liver microsomes
  metabolised at 0.5 h: 15.3%

## CC(C)n1c(=O)c(C(=O)NCCCN2CCCCC2)c(O)c2ccsc21 [PRX-03140]
[13]
  Vdss: 7.6 L/kg
In vivo [16]
  bioavailability at 24 h: 2%
In vivo [17]
  Cmax at 24 h: 17 ng/mL
In vivo [18]
  AUC at 24 h: 22 ng·h/mL
In vivo [15]
  half-life at 24 h: 90 min
In vivo [19]
  clearance at 24 h: 62 mL/min/kg
In vivo [21]
  Kp at 1 h: 1.6

Reference: ChEMBL document CHEMBL5223084, “Discovery and Preclinical Characterization of Usmarapride (SUVN-D4010): A Potent, Selective 5-HT4 Receptor Partial Agonist for the Treatment of Cognitive Deficits Associated with Alzheimer's Disease” (J Med Chem, 2021)
